Holding throughout (format): biochemical
The target of experiment [1] is T1, hCA I (Homo sapiens, UniProt P00915). The experiment in a line: CO2 hydratase activity inhibition of hCA I (pH-stat method). As for the experimental part: (§1) Erythrocytes were purified from human blood. The blood samples were centrifuged at 1500 rpm for 20 min, and plasma was removed. Later, red cells were washed with isotonic solution (0.9% NaCl), and the erythrocytes were hemolyzed with 1.5 volumes of ice-cold water. Cell membranes were removed by centrifugation at 4 °C, 20000 rpm for 30 min. The pH of hemolysate was adjusted to 8.7 with solid TRIS (tris(hydroxymethyl)aminomethane). […] After extensive washing with a solution of 25.0 mM TRIS-HCl/22.0 mM Na2SO4 (pH 8.7), the hCA I and hCA II isoenzymes were eluted with the solution of 1.0 M NaCl/25.0 mM Na2HPO4 (pH 6.3) and 0.1 M NaCH3COO/0.5 M NaClO4 (pH 5.6), respectively. For quantitative protein determination, the Bradford method was used with bovine serum albumin as standard. Also, the purity control of the isoenzymes was performed with SDS-PAGE after the purification.
(§2) The enzyme unit (EU) is the enzyme amount that reduces the non-enzymatic reaction time by 50%. The activity of an enzyme unit was calculated by using the equation ((t0−tc)/tc), where t0 and tc are times for pH change of the non-enzymatic and enzymatic reactions, respectively.
(§3) Regression analysis graphs were drawn by plotting the percent enzyme activity versus inhibitor concentration and IC50 values were calculated.

In experiment [2] the target is T2, hCA II (Homo sapiens, UniProt P00918). The experiment in a line: CO2 hydratase activity inhibition of hCA II (pH-stat method). As for the experimental part: as §1, §2, §3
For experiment [3], the target named is T1, hCA I. The experiment is described as follows: Esterase activity inhibition of hCA I (4-nitrophenylacetate, 348 nm). As for the experimental part:
as §1
(§4) The enzymatic reaction, in a total volume of 3.0 mL, contained 1.4 mL of 0.05 M TRIS–SO4 buffer (pH 7.4), 1.0 mL of 3.0 mM 4-nitrophenylacetate, 0.5 mL H2O, and 0.1 mL enzyme solution. A reference measurement was obtained by preparing the same cuvette without enzyme solution.
as §3
(§5) Enzyme activity was also measured in the presence of the same substrate concentrations but in the absence of any inhibitor to determine the Vmax (Supplementary Figure S3).

Experiment [4] concerns the target T2, hCA II. The experiment is described as follows: Esterase activity inhibition of hCA II (4-nitrophenylacetate, 348 nm). As for the experimental part:
as §1, §4, §3, §5

Where [5] appears, read: CO2 hydratase activity, 0 °C, veronal buffer pH 8.15, mean ± standard error, three assays.
[6] abbreviates: 4-nitrophenylacetate, 25 °C, TRIS-SO4 pH 7.4, mean ± standard error, three assays.
[7] abbreviates: determined by esterase activity measurements, Lineweaver-Burk plot, mean ± standard error, three assays.

T1 sequence (P00915 whole entry): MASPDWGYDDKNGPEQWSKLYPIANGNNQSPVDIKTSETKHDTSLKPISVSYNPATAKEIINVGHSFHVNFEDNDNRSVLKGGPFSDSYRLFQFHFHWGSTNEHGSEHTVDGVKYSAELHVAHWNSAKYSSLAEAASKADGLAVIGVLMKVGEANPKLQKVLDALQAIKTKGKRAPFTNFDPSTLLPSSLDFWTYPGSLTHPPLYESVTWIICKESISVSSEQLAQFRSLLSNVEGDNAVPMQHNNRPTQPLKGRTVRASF

As to (SMHABT)2[Co(DPC)2].5H2O [Compound 3], the IC50 – broadly, the point on the concentration scale where inhibition reaches its midpoint – against hCA I [1] (setting [5]) is 1601 ± 8 nM; against hCA II [2] (setting [5]), 703 ± 14 nM; at hCA I [3] (setting [6]), 66 ± 4 nM; against hCA II [4] (setting [6]), 41 ± 3 nM. Moreover, the Ki (as a rule, a measure of affinity in units of concentration, obtained from inhibition or displacement) on hCA I [3] (setting [7]) was determined as 28 ± 2 nM; on hCA II [4] (setting [7]), 13 ± 6 nM. Besides, the “hCA II inhibited stronger than hCA I (esterase activity)” value at hCA II [4] (esterase activity, hCA II versus hCA I) is listed as 1.5 fold.

As for `O=C(O)c1cccc(C(=O)O)n1` [Compound H2DPC, 2,6-pyridinedicarboxylic acid, reference compound], the “Inhibition of hydratase activity of hCA I (in words)” value on hCA I [1] was “have not inhibited”. At hCA I [1] (setting [5]), the “Hydratase IC50 hCA I” value was “No inhibition”. For the same molecule, on hCA II [2], the “Inhibition of hydratase activity of hCA II (in words)” value is reported as “have not inhibited”. For the same molecule, on hCA II [2] (setting [5]), the “Hydratase IC50 hCA II” value was “No inhibition”. In addition, the “Inhibition of esterase activity of hCA I (in words)” value on hCA I [3] is “have not inhibited”. Besides, at hCA I [3] (setting [6]), the “Esterase IC50 hCA I” value is recorded as “No inhibition”. Further, the “Ki hCA I” value on hCA I [3] (setting [7]) was “No inhibition”. In addition, the “Inhibition of esterase activity of hCA II (in words)” value at hCA II [4] was “have not inhibited”. Also, on hCA II [4] (setting [6]), the “Esterase IC50 hCA II” value is given as “No inhibition”. For the same molecule, the “Ki hCA II” value on hCA II [4] (setting [7]) was “No inhibition”.

With `Nc1nc2ccc(S(N)(=O)=O)cc2s1` [SMABT, 2-amino-6-sulfamoylbenzothiazole], the 50% inhibitory concentration (IC50) turned out to be 6348 ± 12 nM on hCA I [1] (setting [5]), 3876 ± 14 nM against hCA II [2] (setting [5]), 567 ± 8 nM at hCA I [3] (setting [6]) and 322 ± 6 nM against hCA II [4] (setting [6]). The results for the inhibitory constant (Ki) on hCA I [3] (setting [7]) and at hCA II [4] (setting [7]) were 306 ± 4 nM and 162 ± 10 nM, respectively.

As to `NC(=S)Nc1ccc(S(N)(=O)=O)cc1` [TBS, 4-thioureidobenzenesulfonamide, reference compound], the IC50 on hCA I [1] (setting [5]) amounted to 7846 ± 5 nM; on hCA II [2] (setting [5]) it was 4334 ± 21 nM; on hCA I [3] (setting [6]), 499 ± 10 nM; against hCA II [4] (setting [6]), 234 ± 6 nM. In addition, the Ki turned out to be 268 ± 7 nM on hCA I [3] (setting [7]) and 114 ± 3 nM at hCA II [4] (setting [7]).

Regarding `Nc1nc2ccc(S(N)(=O)=O)cc2s1.O=C(O)c1cccc(C(=O)O)n1` [Compound 1, (SMHABT)^+(HDPC)^−], the half-inhibitory concentration (IC50) against hCA I [1] (setting [5]) amounted to 4075 ± 18 nM; at hCA II [2] (setting [5]) it was 1998 ± 9 nM; against hCA I [3] (setting [6]), 258 ± 17 nM; against hCA II [4] (setting [6]), 133 ± 15 nM. Besides, the inhibition constant (Ki) worked out at 149 ± 17 nM at hCA I [3] (setting [7]) and 85 ± 19 nM at hCA II [4] (setting [7]).

Regarding (SMHABT)[Fe(DPC)2].4H2O [Compound 2], the IC50 against hCA I [1] (setting [5]) stood at 2533 ± 23 nM; against hCA II [2] (setting [5]) it was 1010 ± 13 nM; on hCA I [3] (setting [6]), 409 ± 21 nM; against hCA II [4] (setting [6]) it was 189 ± 5 nM. The inhibition constant (Ki) at hCA I [3] (setting [7]) was 192 ± 19 nM; on hCA II [4] (setting [7]) it was 101 ± 5 nM.

As for (SMHABT)2[Ni(DPC)2].5H2O [Compound 4], the IC50 on hCA I [1] (setting [5]) was determined as 397 ± 11 nM; at hCA II [2] (setting [5]), 212 ± 6 nM; at hCA I [3] (setting [6]), 136 ± 3 nM; on hCA II [4] (setting [6]), 54 ± 1 nM. In addition, the Ki at hCA I [3] (setting [7]) turned out to be 43 ± 12 nM; on hCA II [4] (setting [7]) it was 21 ± 4 nM.

Values taken from PMC6009966, “A novel proton transfer salt of 2-amino-6-sulfamoylbenzothiazole and its metal complexes: the evaluation of their inhibition effects on human cytosolic carbonic anhydrases” (Journal of Enzyme Inhibition and Medicinal Chemistry, 2017).
